Experimental data as given in PMC10779255, “Novel Hydroxamic Acids Containing Aryl-Substituted 1,2,4- or 1,3,4-Oxadiazole Backbones and an Investigation of Their Antibiotic Potentiation Activity” (International Journal of Molecular Sciences, 2023).
“Also recorded” adds a separate entry of the source.

Legend:
[1] = Cytotoxicity assay (Alamar Blue); type: cell-based; conditions: human, HEK293 cells, 72 h exposure, mean ± SD, at least 3 independent experiments
Procedure: The HEK293 cell line was obtained from the ECACC (European Collection of Authenticated Cell Cultures, cat. 85120602, Salisbury, UK). The cells were grown in monolayer culture in Dulbecco’s Modified Eagle Medium (DMEM) (PanEco, Moscow, Russia) supplemented with 2 mM of L-glutamine, 1% penicillin/streptomycin (Capricorn Scientific, Ebsdorfergrund, Germany), and 10% heat-inactivated fetal bovine serum (HyClone, Cytiva, Pasching, Austria) in a humidified atmosphere of 5% CO2 and at 37 °C (Binder, Tuttlingen, Germany). For analysis, the HEK293 cells were seeded into a 96-well plate (Corning Incorporated, Corning, NY, USA) in 100 μL of complete culture medium at a final concentration of 1 × 10^4 cells/well and cultured for 24 h for proper attachment. Subsequently, the medium was removed, and cells were exposed to the test inhibitor with different concentrations for 72 h in 100 μL of fresh complete culture medium. The sensitivity of the cells to test inhibitor molecules was detected using the vital dye Alamar Blue (Invitrogen, Carlsbad, CA, USA). The Alamar Blue assay was performed according to the procedure described by O’Brien et al.. After incubation with test inhibitor molecules, 10 μL of Alamar Blue reagent was added to each well, cell culture plates were returned to a humidified incubator, and the fluorescence was read after 3 h. The plates were exposed to an excitation wavelength of 545 nm, and the emission at 600 nm was measured with the CLARIOstar Plus (BMG Labtech, Ortenberg, Germany, Software Version 5.70 R2). To determine corresponding 50% cellular cytotoxicity (CC50) values, a four-parameter sigmoidal fit curve model (GraphPad Prism 8 software) was used to measure the data.

E. coli MG1655 = experiment: Growth curves of E. coli MG1655 with antibiotics, with or without LpxC inhibitors (antibiotic potentiation); type: cell-based, Escherichia coli; conditions: for Activity: combined action together with the antibiotic, marking used for QSAR; for potentiation of kanamycin (sensitivity of cells): kanamycin 0.62 μM; for potentiation of kanamycin (sensitivity of cells) / potentiation of rifampicin (sensitivity of cells): inhibitor 50 or 100 µM; for potentiation of kanamycin (sensitivity of cells) / potentiating activity with nalidixic acid (growth inhibition) / potentiation of rifampicin (sensitivity of cells): OD600 growth curves; for potentiating activity with nalidixic acid (growth inhibition): nalidixic acid 17.22 μM, inhibitor 50–100 µM; for potentiation of rifampicin (sensitivity of cells): rifampicin 6.08 μM; for Activity: key: active (1); inactive (0)
Procedure: (§1) Escherichia coli strain MG1655 and Pseudomonas aeruginosa strain ATCC 27853 were obtained from the American Type Culture Collection (ATCC; Rockville, MD, USA). Subculturing and inoculum preparation were prepared according to the Clinical and Laboratory Standards Institute (CLSI) recommended method, M7-A9 [42], using MHA and MHB.
Growth curves were obtained with a Bioscreen C automated growth analysis system. Cultures of E. coli MG1655 were grown overnight at 37 °C, diluted 1:100 in fresh medium, inoculated into honeycomb wells in triplicate, and grown at 37 °C with maximum shaking using the platform of the Bioscreen C instrument. […] OD600 values were recorded automatically at specified times, and the means of the triplicate cultures were plotted.

P. aeruginosa ATCC 27853 = experiment: MIC (broth microdilution) and growth curves of antibiotics in combination with 9c or 9d; type: cell-based, Pseudomonas aeruginosa; conditions: 24 h, broth microdilution
Procedure: as §1
Minimum inhibitory concentrations (MICs) for rifampicin and nalidixic acid were determined via the modified broth microdilution method in triplicate according to CLSI guidelines M7-A9 and M100-A30 [43]. The antibiotics were serially diluted twofold in 100 μL of MHB. The bacteria inoculum was 100 μL of a 1.0 × 10^6 CFU/mL dilution in MHB. MICs for antibiotics in the presence of 9c or 9d were determined with the same method.
MIC endpoints were read after 24 h of incubation with an iMark microplate absorbance reader (Bio-Rad, Hercules, CA, USA). Growth curves of P. aeruginosa ATCC 27853 in the presence of rifampicin/nalidixic acid and 9c/9d were obtained using a multifunction microplate reader, SuperMax 3100 (ShanghaiFlash, Shanghai, China). Cells were grown in triplicate at 37 °C with aeration.

melting point	MIC of antibiotic alone (P. aeruginosa ATCC 27853)	SMILES	CC50 at 72 h [1]	Activity (E. coli MG1655)	potentiation of kanamycin (sensitivity of cells) (E. coli MG1655)	potentiating activity with nalidixic acid (growth inhibition) (E. coli MG1655)	potentiation of rifampicin (sensitivity of cells) (E. coli MG1655)
174 °C (dec.)	–	O=C(Cc1noc(-c2ccc(Cl)cc2)n1)NO [Compound 23a]	112 ± 18.6 µM	1	significantly increased the sensitivity	inhibited bacterial growth less effectively; also recorded: less effective	significantly increased the sensitivity
211.6 °C (dec.)	–	O=C(Cc1noc(-c2ccc(I)cc2)n1)NO [Compound 23b]	169 ± 22.5 µM	0	–	–	–
146 °C (dec.)	–	O=C(Cc1noc(-c2cccc(Cl)c2)n1)NO [Compound 23c]	143 ± 3.84 µM	1	significantly increased the sensitivity	inhibited bacterial growth less effectively; also recorded: less effective	significantly increased the sensitivity
156.3 °C (dec.)	–	O=C(Cc1noc(-c2cccc(I)c2)n1)NO [Compound 23d]	171 ± 22.9 µM	0	–	–	–
184.4 °C (dec.)	–	O=C(NO)c1nnc(-c2ccc(I)cc2)o1 [Compound 30a, N-Hydroxy-5-(4-iodophenyl)-1,3,4-oxadiazole-2-carboxamide]	62.2 ± 9.88 µM	0	–	–	–
274.9 °C (dec.)	–	O=C(NO)c1nnc(-c2cccc(I)c2)o1 [Compound 30b, N-Hydroxy-5-(3-iodophenyl)-1,3,4-oxadiazole-2-carboxamide]	> 200 µM	1	not to kanamycin	inhibited bacterial growth less effectively; also recorded: weak potentiating activity	significantly increased the sensitivity
259.6 °C (dec.)	–	Cc1cc(F)ccc1-c1nnc(C(=O)NO)o1 [Compound 30c, 5-(4-Fluoro-2-methylphenyl)-N-hydroxy-1,3,4-oxadiazole-2-carboxamide]	> 200 µM	0	–	–	–
197.3 °C (dec.)	–	COc1ccc(-c2nnc(C(=O)NO)o2)c(OC)c1 [Compound 30d, 5-(2,4-Dimethoxyphenyl)-N-hydroxy-1,3,4-oxadiazole-2-carboxamide]	> 600 µM	0	–	–	–
166.7 °C (dec.)	–	COc1cccc(-c2nnc(C(=O)NO)o2)c1OC [Compound 30e, 5-(2,3-Dimethoxyphenyl)-N-hydroxy-1,3,4-oxadiazole-2-carboxamide]	770 ± 58.4 µM	0	–	–	–
130.7 °C (dec.)	–	COc1ccc(-c2nnc(C(=O)NO)o2)cc1OC [Compound 30f, 5-(3,4-Dimethoxyphenyl)-N-hydroxy-1,3,4-oxadiazole-2-carboxamide]	478 ± 50.5 µM	0	–	–	–

Further lines, the compound ahead of its results:

SMILES	melting point	MIC of antibiotic alone (P. aeruginosa ATCC 27853)	CC50 at 72 h [1]	Activity (E. coli MG1655)	potentiation of kanamycin (sensitivity of cells) (E. coli MG1655)	potentiating activity with nalidixic acid (growth inhibition) (E. coli MG1655)	potentiation of rifampicin (sensitivity of cells) (E. coli MG1655)
O=C(NO)c1nc(-c2c(F)cccc2F)no1 [Compound 4a]	117.4 °C (dec.)	–	> 500 µM	0	–	–	–
O=C(NO)c1nc(-c2ccc(OC(F)(F)F)cc2)no1 [Compound 4b]	108.6 °C (dec.)	–	380 ± 10.2 µM	0	–	–	–
O=C(NO)c1nc(-c2cc(F)c(F)c(F)c2)no1 [Compound 4c]	133.6 °C (dec.)	–	> 500 µM	0	–	–	–
Cc1cccc(-c2noc(C(=O)NO)n2)c1 [Compound 4d]	106 °C (dec.)	–	457 ± 18.2 µM	0	–	–	–
COc1ccc(-c2noc(C(=O)NO)n2)cc1 [Compound 4e]	144 °C (dec.)	–	> 250 µM	0	–	–	–
O=C(NO)c1nc(-c2ccc(I)cc2)no1 [Compound 4f]	181.3 °C (dec.)	–	367 ± 53.9 µM	0	–	–	–
O=C(Cc1nc(-c2c(F)cccc2F)no1)NO [Compound 9a]	149.7 °C (dec.)	–	188 ± 31.2 µM	0	–	–	–
O=C(Cc1nc(-c2ccc(OC(F)(F)F)cc2)no1)NO [Compound 9b]	177 °C (dec.)	–	108 ± 23.9 µM	0	–	–	–
O=C(NO)c1cccc(-c2nc(-c3c(F)cccc3F)no2)c1 [Compound 14a]	204.2 °C (dec.)	–	25.5 ± 3.11 µM	0	–	–	–
O=C(NO)c1cccc(-c2nc(-c3ccc(OC(F)(F)F)cc3)no2)c1 [Compound 14b]	191 °C (dec.)	–	6.39 ± 1.32 µM	0	–	–	–
O=C(NO)c1cccc(-c2nc(-c3cc(F)c(F)c(F)c3)no2)c1 [Compound 14c]	188.5 °C (dec.)	–	4.53 ± 1.22 µM	0	–	–	–
O=C(NO)c1ccc(-c2nc(-c3ccc(OC(F)(F)F)cc3)no2)cc1 [Compound 14d]	236 °C (dec.)	–	5.28 ± 1.05 µM	0	–	–	–
O=C(NO)c1ccc(-c2nc(-c3ccccc3)no2)cc1 [Compound 14e]	265.4 °C (dec.)	–	15 ± 0.53 µM	0	–	–	–
O=C(CCc1nc(-c2c(F)cccc2F)no1)NO [Compound 17a]	99 °C (dec.)	–	30.8 ± 3.71 µM	0	–	–	–
O=C(CCc1nc(-c2ccc(OC(F)(F)F)cc2)no1)NO [Compound 17b]	120 °C (dec.)	–	42.4 ± 4.58 µM	0	–	–	–
O=C(CCc1nc(-c2cc(F)c(F)c(F)c2)no1)NO [Compound 17c]	122 °C (dec.)	–	59.2 ± 7.27 µM	0	–	–	–
Cc1cccc(-c2noc(CCC(=O)NO)n2)c1 [Compound 17d]	115.8 °C (dec.)	–	21.3 ± 2.53 µM	–	–	–	–
O=C(NO)c1cccc(-c2noc(-c3ccccc3F)n2)c1 [Compound 26]	199.3 °C (dec.)	–	21.7 ± 3.43 µM	0	–	–	–
CCn1cc(C(=O)O)c(=O)c2ccc(C)nc21 [nalidixic acid, reference compound]	–	17.22 µM	–	–	–	–	–
CO[C@H]1/C=C/O[C@@]2(C)Oc3c(C)c(O)c4c(O)c(c(/C=N/N5CCN(C)CC5)c(O)c4c3C2=O)NC(=O)/C(C)=C\C=C\[C@H](C)[C@H](O)[C@@H](C)[C@@H](O)[C@@H](C)[C@H](OC(C)=O)[C@@H]1C [rifampicin, reference compound]	–	4.86 µM	–	–	–	–	–
